# Data as given in patent publication US10087242B2 (INSTITUT PASTEUR, priority 2007, dated 2018).
# Assays:
# Assay type in all cases: binding, mouse
# [1] = test system: mIgG C7-37; assay: inhibition ELISA: oligosaccharide inhibits fixation of mIgG C7-37 on LPS 3a; settings: concentration of oligosaccharide giving 50% inhibition of fixation of the mAb on LPS 3a (S. flexneri 3a)
# Protocol: (§1) The oligosaccharide determinants recognized by the four mAbs obtained were characterized by measuring, by inhibition ELISA, the interaction of the various oligosaccharides synthesized with these mAbs.
# (§2) 1) First, a standard curve OD=f(concentration of the mAb) was established for each antibody.
# (§3) For this, purified LPS from S. flexneri 3a was fixed in the wells of ELISA plates (96-well plate), at a concentration of 25 μg/ml in a carbonate buffer pH 9.6, at 4° C., overnight.
# (§4) After washing the wells with a solution of PBS/ Tween 20 (0.05%) 1% and a stage of saturation with PBS/BSA 1% for 30 minutes at 4° C., various concentrations of each mAb were incubated for 30 minutes at 4° C. After a washing stage, a secondary antibody coupled to alkaline phosphatase and specific to the mouse IgGs or IgMs was added at a dilution of 1/5000 (Sigma-Aldrich) for 1 h at 37° C. After washing, the enzymatic reaction was carried out with the specific substrate of alkaline phosphatase (12 mg of p-nitrophenylphosphate in 1.2 ml of Tris-HCl buffer 1M (pH 8.8) and 10.8 ml of 5M NaCl). Once the color reaction had developed, the plates were read at 405 nm (Dynatech MR 4000 plate reader). The standard curve OD =f(Ab concentration) was refined with the equation Y=aX2+bX+c, where Y corresponds to the OD and X to the antibody concentration. A correlation factor (r2) of 0.99 was generally obtained.
# (§5) 2) The concentration of oligosaccharide capable of inhibiting 50% of the fixation of the mAb on LPS 3a was then determined as follows.
# (§6) Each mAb was used at a given concentration, defined as the first concentration tested giving a maximum OD on the standard curve (the first point at the start of the plateau of the curve). Various concentrations of each of the oligosaccharides to be tested were then incubated separately with the mAb at constant concentration, overnight at 4° C., in 1% PBS-BSA buffer. Measurement of the free antibody concentration was carried out as stated above, after incubation of the mAb/oligosaccharide mixtures at 4° C. for 30 minutes on plates covered with LPS 3a and using the standard curve obtained in parallel on the same plate. For each mAb and each oligosaccharide, a value called IC50 was then calculated, corresponding to the concentration of oligosaccharide permitting 50% inhibition of the fixation of the mAb on LPS 3a.
# [2] = test system: mIgG G7-12; assay: inhibition ELISA: oligosaccharide inhibits fixation of mIgG G7-12 on LPS 3a; settings: concentration of oligosaccharide giving 50% inhibition of fixation of the mAb on LPS 3a (S. flexneri 3a)
# Protocol: as §1, §2, §3, §4, §5, §6
# [3] = test system: IgM (G 19-2); assay: inhibition ELISA: oligosaccharide inhibits fixation of IgM G19-2 on LPS 3a; settings: concentration of oligosaccharide giving 50% inhibition of fixation of the mAb on LPS 3a (S. flexneri 3a), inhibition ELISA
# Protocol: Protocol 2) Ten Balb/C mice and four BP2 mice were immunized by i.p. injection with virulent live bacteria of the strain S. flexneri 3a, every three weeks, using 2×10^6 bacteria for the first 2 immunizations and 5×10^6 for the next 4. As the anti-LPS 3a antibody response was too weak for performing cellular fusion, an additional series of 4 injections was carried out. Two mAbs of type IgM, G19-2 and L18-9, were obtained.
# as §1, §2, §3, §4, §5, §6
smiles,measurement,setting,value
"CCCO[C@@H]1O[C@@H](C)[C@H](O)[C@@H](O[C@H]2O[C@H](CO)[C@@H](O)[C@H](O)[C@H]2O)[C@H]1O [EA-OPr, Propyl α-D-glucopyranosyl- (1→3)-α-L-rhamnopyranoside]",IC50,[1],> 5000 µM
same,IC50,[2],> 2500 µM
same,IC50,[3],> 2500 µM
